Reference: patent publication US20100210649A1, “PYRIDAZINONES AND FURAN-CONTAINING COMPOUNDS” (Sloan-Kettering Institute for Cancer Research, priority 2006, published 2010)
“And” between values parts separate entries of the source, which are not always exact repeats. Equal entries are not always repeated. Where two headings read alike, the source gives them in different places.

Experiments:
H1650 = assay: Non Small Cell Lung Cancer proliferation assay (Alamar Blue reduction), H1650; type: cell-based, human; conditions: for inhibition at 10 µM: NCI-H1650, primary screening; for inhibition at 10 µM / CONFIRMATION [%] 1650: 10 μM compound in 1% DMSO (v/v); for CONFIRMATION [%] 1650: percentage inhibition
Procedure, shortened: (§1)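 Compounds are tested at 1% DMSO final concentration against adherent NSCLC cells for 48 h at 37° C, with cytotoxicity measured by Alamar Blue reduction after a further 48 h incubation.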

H1975 = assay: Non Small Cell Lung Cancer proliferation assay (Alamar Blue reduction), H1975; type: cell-based, human; conditions: for inhibition at 10 µM: NCI-H1975, primary screening; for inhibition at 10 µM / CONFIRMATION [%] 1975: 10 μM compound in 1% DMSO (v/v); for CONFIRMATION [%] 1975: percentage inhibition
Procedure, shortened: as §1

H2030 = assay: Non Small Cell Lung Cancer proliferation assay (Alamar Blue reduction), H2030; type: cell-based, human; conditions: for inhibition at 10 µM: NCI-H2030, primary screening; for inhibition at 10 µM / CONFIRMATION [%] 2030: 10 μM compound in 1% DMSO (v/v); for CONFIRMATION [%] 2030: percentage inhibition
Procedure, shortened: as §1

H3255 = assay: Non Small Cell Lung Cancer proliferation assay (Alamar Blue reduction), H3255; type: cell-based, human; conditions: for inhibition at 10 µM: NCI-H3255, primary screening; for inhibition at 10 µM / CONFIRMATION [%] 3255: 10 μM compound in 1% DMSO (v/v); for CONFIRMATION [%] 3255: percentage inhibition
Procedure, shortened: as §1

H358 = assay: Non Small Cell Lung Cancer proliferation assay (Alamar Blue reduction), H358; type: cell-based; conditions: Homo sapiens, H358, 12 point doubling dilution 10 uM to 5 nM, 48 h treatment, alamar blue additional 48 h, read-out: IC50 H358
Protocol: These cells have a doubling time of 1-2 days. All cell types are adherent and grow in colonies. The cells should be kept at a density between 50,000 cells/mL -500,000 cells/mL to provide for optimum growth and adequate nutrition. The cell line should be maintained at 37° C. in a humidified atmosphere with 5% CO2 in a sterile cell culture incubator.
Non Small Cell Lung Cancer Proliferation Assay.
High Controls for this assay are made by treating Non Small Cell Lung Cancer cells with 5 ul of 10% DMSO. [Final concentration in this assay is 1% DMSO].
Important Note: All compounds for testing in this assay should be done at the final concentration of 1% DMSO.
After addition, the cells are placed in cell culture incubator at 37° C. for 48 hours for complete treatment.
After drug treatment, cytotoxicity is measured by Alamar Blue reduction.
The cells are incubated for 48 hours at 37° C. to complete the Alamar Blue reduction.
The final step in the assay is to measure the amount of Alamar Blue reduction. […] The Alamar Blue fluorescence is measured at an excitation of 530 nm and emission of 590 nm.
For the NSCLC project, the cell based assay was screened against a small molecule library of approximately 200,000 compounds. The compound library is stored in our automated robotic freezer (Biophile) at −20° C. in 100% DMSO. Compound freeze and thaw cycles are kept to a minimum. […] This assay was performed on a fully automated linear track robotic platform (CRS F3 Robot System, Thermo Electron Corp., Ontario, Canada) utilizing several integrated peripherals for plate handling, liquid dispensing, and readout detection. […] The microplates are then placed at 37° C. for 48 hours to complete treatment of cells with compounds. Next, 5 ul of alamar blue was added using a liquid dispenser (Flexprop Precision Dispenser, Perkin Elmer, Mass., USA) and incubated for 48 hours at 37° C. The alamar blue prompt fluorescence was measured on Victor V (Victor^3 V, Perkin Elmer, Mass., USA) and output data files were loaded into ORIS (Oncology Research Informatics System, MSKCC, NY, USA), a screening data acquisition and analysis platform.
(§2) The dose response studies were done with the following standard procedure. First, the cells were counted and dispensed at 250 cells/well into 384-well microplates with compound. The cells were incubated for 48 hours at 37 C to complete treatment, and then alamar blue was added for an additional 48 hours. Finally, alamar blue reduction was measured and the data was loaded into ORIS, our data screening acquisition platform.

[1] = test system: HPL1D (human peripheral lung epithelial) cell line; assay: Cell proliferation / dose response (Alamar Blue), HPL1D; type: cell-based; conditions: read-out: IC50 HPL1D
Protocol: WI-38: human lung fibroblast cell line. […] WT: wildtype; WT*: over-expressed wildtype. Dose response studies against 34 compounds from the pyridazinone and phenylfuran-carboxamide class were conducted. […] In addition, Tarceva was included in these dose response studies. The dose response studies were done with the following standard procedure. […] The cells were incubated for 48 hours at 37 C to complete treatment, and then alamar blue was added for an additional 48 hours. Finally, alamar blue reduction was measured and the data was loaded into ORIS, our data screening acquisition platform.

H820 = assay: Dose response study (Alamar Blue), H820; type: cell-based; conditions: Homo sapiens, read-out: IC50 H820
Protocol: (§3) Dose response studies against 34 compounds from the pyridazinone and phenylfuran-carboxamide class were conducted. […] In addition, Tarceva was included in these dose response studies.
as §2

PC9 = assay: Dose response study (Alamar Blue), PC9; type: cell-based; conditions: Homo sapiens, read-out: IC50 PC9
Protocol: as §3, §2

A549 = assay: Dose response study (Alamar Blue), A549; type: cell-based; conditions: Homo sapiens, read-out: IC50 A549
Protocol: as §3, §2

H2122 = assay: Dose response study (Alamar Blue), H2122; type: cell-based; conditions: Homo sapiens, read-out: IC50 H2122
Protocol: as §3, §2

[2] = Homo sapiens, NCI-H1650, 48 h, H1650, 12 point doubling dilution 10 uM to 5 nM, 48 h treatment, alamar blue additional 48 h, read-out: IC50 H1650
[3] = Homo sapiens, NCI-H1650, phenylfuran-2-carboxamide SAR summary, read-out: IC50(uM) 1650
[4] = Homo sapiens, H1650, read-out: PRIMARY HTS [%] H1650 (percentage inhibition)
[5] = Homo sapiens, NCI-H1975, 48 h, H1975, 12 point doubling dilution 10 uM to 5 nM, 48 h treatment, alamar blue additional 48 h, read-out: IC50 H1975
[6] = Homo sapiens, NCI-H1975, phenylfuran-2-carboxamide SAR summary, read-out: IC50(uM) 1975
[7] = Homo sapiens, H1975, read-out: PRIMARY HTS [%] H1975 (percentage inhibition)
[8] = Homo sapiens, NCI-H2030, 48 h, H2030, 12 point doubling dilution 10 uM to 5 nM, 48 h treatment, alamar blue additional 48 h, read-out: IC50 H2030
[9] = Homo sapiens, NCI-H2030, phenylfuran-2-carboxamide SAR summary, read-out: IC50(uM) 2030
[10] = Homo sapiens, H2030, read-out: PRIMARY HTS [%] H2030 (percentage inhibition)
[11] = Homo sapiens, NCI-H3255, 48 h, H3255, 12 point doubling dilution 10 uM to 5 nM, 48 h treatment, alamar blue additional 48 h, read-out: IC50 H3255
[12] = Homo sapiens, NCI-H3255, phenylfuran-2-carboxamide SAR summary, read-out: IC50(uM) 3255
[13] = Homo sapiens, H3255, read-out: PRIMARY HTS [%] H3255 (percentage inhibition)
[14] = HPL1D, 12 point doubling dilution 10 uM to 5 nM, 48 h treatment, alamar blue additional 48 h
[15] = NCI-H820, H820, 12 point doubling dilution 10 uM to 5 nM, 48 h treatment, alamar blue additional 48 h
[16] = PC-9, PC9, 12 point doubling dilution 10 uM to 5 nM, 48 h treatment, alamar blue additional 48 h
[17] = A549, 12 point doubling dilution 10 uM to 5 nM, 48 h treatment, alamar blue additional 48 h
[18] = NCI-H2122, H2122, 12 point doubling dilution 10 uM to 5 nM, 48 h treatment, alamar blue additional 48 h

Structure (SMILES) | IC50 (H1650; [2]) | IC50 (H1650; [3]) | inhibition at 10 µM (H1650; [4]) | CONFIRMATION [%] 1650 (H1650) | IC50 (H1975; [5]) | IC50 (H1975; [6]) | inhibition at 10 µM (H1975; [7]) | CONFIRMATION [%] 1975 (H1975) | IC50 (H2030; [8]) | IC50 (H2030; [9]) | inhibition at 10 µM (H2030; [10]) | CONFIRMATION [%] 2030 (H2030) | IC50 (H3255; [11]) | IC50 (H3255; [12]) | inhibition at 10 µM (H3255; [13]) | CONFIRMATION [%] 3255 (H3255) | IC50 (H358; NCI-H358, 48 h) | IC50 ([1]; 48 h) | IC50 (H820; NCI-H820, 48 h) | IC50 (PC9; PC-9, 48 h) | further results
Cc1cccc(NC(=O)c2ccc([N+](=O)[O-])o2)c1 [compound 71762] | 0.63 µM | 0.43 µM | 104% | 135% and 106% | 4.23 µM | 1.24 µM | 74% | 59% and 76% | 0.99 µM | 1.43 µM | 101% | 103% | 2.41 µM | 0.95 µM | 100% | 122% and 97% |  |  |  |  | IC50 (H1650; phenylfuran-2-carboxamide SAR summary, read-out: IC50(uM) 1650): 0.41 µM; IC50 (H1975; phenylfuran-2-carboxamide SAR summary, read-out: IC50(uM) 1975): 1.23 µM; IC50 (H2030; phenylfuran-2-carboxamide SAR summary, read-out: IC50(uM) 2030): 1.46 µM; IC50 (H3255; phenylfuran-2-carboxamide SAR summary, read-out: IC50(uM) 3255): 1.01 µM; IC50 (H358; NCI-H358): 1270 nM; IC50 [1, 14]: > 10000 nM; IC50 (H820; [15]): 3610 nM; IC50 (PC9; [16]): 1890 nM; IC50 (A549; [17]): 1460 nM; IC50 (H2122; [18]): 4830 nM
O=C(Nc1ccc(F)c(Cl)c1)c1ccc([N+](=O)[O-])o1 [compound 87200] | 7.49 µM | 0.29 µM | 103% | 112% | > 10 µM | 0.44 µM | 67% | 95% | 8.51 µM | 1.01 µM | 23% | 107% | > 10 µM | 0.69 µM | 6% | 103% |  |  |  |  | IC50 (H358; NCI-H358): 7170 nM; IC50 [1, 14]: > 10000 nM; IC50 (H820; [15]): > 10000 nM; IC50 (PC9; [16]): 8670 nM; IC50 (A549; [17]): > 10000 nM; IC50 (H2122; [18]): > 10000 nM
Cc1ccc(NC(=O)c2ccc([N+](=O)[O-])o2)cc1 [compound 98697] | 0.6 µM | 0.44 µM | 103% | 136% | 4.57 µM | 1.09 µM | 70% | 70% | 1.18 µM | 1.06 µM | 62% | 101% | 2.72 µM | 0.91 µM | 83% | 130% | 1200 nM | > 10000 nM | 3530 nM | 2170 nM | IC50 (A549; A549, 48 h): 1810 nM; IC50 (H2122; NCI-H2122, 48 h): 5200 nM
O=C(Nc1ccc(Cl)cc1)c1ccc([N+](=O)[O-])o1 [compound 98698, 5-nitro-furan-2-carboxylic acid (4-chloro-phenyl)-amide] | 0.47 µM | 0.38 µM | 101% | 133% | 2.63 µM | 0.63 µM | 74% | 57% | 0.91 µM | 1.12 µM | 17% | 98% | 1.77 µM | 0.95 µM | 20% | 118% | 810 nM | > 10000 nM | 1830 nM | 1580 nM | IC50 (A549; A549, 48 h): 1330 nM; IC50 (H2122; NCI-H2122, 48 h): 3090 nM
Cc1cccc(-n2ncc(Cl)c(Cl)c2=O)c1 [compound 104122, 4,5-dichloro-2-m-tolyl-2H-pyridazin-3-one] | 1.41 µM |  |  |  | 0.29 µM |  |  |  | 0.29 µM |  |  |  | 0.87 µM |  |  |  | 410 nM | 280 nM | 180 nM | 650 nM | inhibition at 10 µM (H1650; Homo sapiens, read-out: percentage inhibition H1650): 48%; inhibition at 10 µM (H1975; Homo sapiens, read-out: percentage inhibition H1975): 104%; IC50 (H1975; dose response 10 M to 5 nM, IC50, read-out: Dose Response (uM) H1975): 0.14 µM; inhibition at 10 µM (H2030; Homo sapiens, read-out: percentage inhibition H2030): 101%; inhibition at 10 µM (H3255; Homo sapiens, read-out: percentage inhibition H3255): 98%; IC50 (H3255; dose response 10 M to 5 nM, IC50, read-out: Dose Response (uM) H3255): 0.38 µM; IC50 (A549; A549, 48 h): 1450 nM; IC50 (H2122; NCI-H2122, 48 h): 1150 nM
